# In US11179400B2, “Heterocyclic compounds as RSV inhibitors” (priority 2019, dated 2021):
# Test system: Human RSV-A (“Long” strain)
# Assay: RSV in vitro cytoprotection assay in HEp-2 cells (ATPlite read-out)
# Assay type: cell-based
# Details: human respiratory syncytial virus, 96 h; HEp-2 cells, genotype A “Long” strain RSV, 4-day incubation, ATPlite; read-out: Human RSV-A (“Long” strain) EC50
# From the text: RSV is a single stranded negative sense RNA virus that causes respiratory tract infections which can be dangerous to infants, the elderly, and immunosuppressed individuals. Currently there is no vaccine, and therapeutic options are both costly and of limited effectiveness. These approved treatments are Ribavirin, and Palivizumab/Synagis (a monoclonal antibody). RSV has two genotypes, A and B, which differ primarily in the structure of the virus' surface “G” attachment protein. Our current primary screen focusses on RSV-A and uses an in vitro cytoprotection assay where compounds are added in 2-fold dilutions to cells which are then subjected to fully replicative viral particles. Cell viability is measured several days later along with separate measurements of compound cytotoxicity. This report focuses on the results of our most recent screening of compounds.
# HEp-2 cells, (originally derived from tumors grown in irradiated-cortisonised weanling rats that had been injected with epidermoid carcinoma tissue from a person's larynx, but later found to be indistinguishable from HeLa cells by PCR DNA analysis), were used for the culturing of genotype A, “Long” strain RSV. Flasks were inoculated with RSV and viral stocks were collected once cytopathic effect (CPE) was greater than 90%. Viral stocks in 25% sucrose media were snap frozen using liquid nitrogen to increase viral stability. Viral stock titers were quantified by tissue culture infectious dose 50% (TCID50) using 8,000 cells per well and 3-fold viral dilutions across a 96-well plate, cultured for 4 days.
# Following extensive parameter testing, the final assay is run as follows: HEp-2 cells are seeded into the inner 60 wells of a 96-well plate at 8,000 cells per well in a volume of 50 μL using Growth Media (DMEM without phenol red, 1% L-Glut, 1% Penn/Strep, 1% nonessential amino acids, 10% FBS). 2-Fold serial dilutions of control and test compounds are added to the wells in duplicate in a total volume of 25 μL. Viral stock is then added to the wells in a volume of 25 μL, bringing the total volume of each well to 100 μL. Each 96-well plate has a control column of 6 wells with cells and virus but no compound (negative control, max CPE), a column with cells but no compound or virus (positive control, minimum CPE), and a column with no cells or virus or compound (background plate/reagent control). The control wells with cells but no virus are given an additional 25 μL of growth media containing an equal quantity of sucrose as those wells receiving the viral stock in order to keep consistent in media and volume conditions. The outer wells of the plate are filled with 125 μL of growth media to act as a thermal and evaporative moat around the test wells. Following a 4-day incubation period, the plates are read using ATPlite (50 uL added per well), which quantifies the amount of ATP (a measure of cell health) present in each well. Assay plates are read using the Envision luminometer. In parallel, cytotoxicity is examined on an additional 96-well plate treated in an identical manner, but substituting the 25 μL of viral stock for 25 μL of growth media. […] EC50 ranges are as follows: A<0.01 μM; B 0.01-0.05 μM; C>0.05 μM.
row,SMILES,EC50 [nM]
1,Cc1cnc(N2CC3(CCOCC3)C2)c(C(=O)Nc2ccc(C(=O)N3CCC(c4ccc(C(=O)NC5CC5)s4)=Cc4ccccc43)cc2)c1 [Example 1],< 10
2,Cc1cnc(N2CC3(CCOCC3)C2)c(C(=O)Nc2ccc(C(=O)N3CCC(c4ccc(C(=O)Nc5c(F)cccc5F)s4)=Cc4ccccc43)cc2)c1 [Example 2],< 10
3,Cc1cnc(N2CC3(CCOCC3)C2)c(C(=O)Nc2ccc(C(=O)N3CCC(c4ccc(C(=O)NC5CCC5)s4)=Cc4ccccc43)cc2)c1 [Example 3],< 10
4,Cc1cnc(N2CC3(CCOCC3)C2)c(C(=O)Nc2ccc(C(=O)N3CCC(c4ccc(C(=O)NC5CC(F)(F)C5)s4)=Cc4ccccc43)cc2)c1 [Example 4],< 10
5,Cc1cnc(N2CC3(CCOCC3)C2)c(C(=O)Nc2ccc(C(=O)N3CCC(c4ccc(C(=O)NC56CC(C5)C6)s4)=Cc4ccccc43)cc2)c1 [Example 5],10 to 50
6,Cc1cnc(N2CC3(CCOCC3)C2)c(C(=O)Nc2ccc(C(=O)N3CCC(c4ccc(C(=O)Nc5c(C)cccc5F)s4)=Cc4ccccc43)cc2)c1 [Example 6],10 to 50
7,Cc1ccc(C(=O)Nc2ccc(C(=O)N3CCC(c4ccc(C(=O)Nc5c(F)cccc5F)s4)=Cc4ccccc43)cc2)c(N2CC3(CCOCC3)C2)n1 [Example 7],10 to 50
8,Cc1ccc(C(=O)Nc2ccc(C(=O)N3CCC(c4ccc(C(=O)Nc5c(C)cccc5F)s4)=Cc4ccccc43)cc2)c(N2CC3(CCOCC3)C2)n1 [Example 8],10 to 50
9,Cc1ccc(C(=O)Nc2ccc(C(=O)N3CCC(c4ccc(C(=O)NC5CC(F)(F)C5)s4)=Cc4ccccc43)cc2)c(N2CC3(CCOCC3)C2)n1 [Example 9],10 to 50
10,Cc1ccc(C(=O)Nc2ccc(C(=O)N3CCC(c4ccc(C(=O)NC5CCC5)s4)=Cc4ccccc43)cc2)c(N2CC3(CCOCC3)C2)n1 [Example 10],< 10
11,Cc1ccc(C(=O)Nc2ccc(C(=O)N3CCC(c4ccc(C(=O)NC56CC(C5)C6)s4)=Cc4ccccc43)cc2)c(N2CC3(CCOCC3)C2)n1 [Example 11],10 to 50
12,Cc1cnc(N2CC3(CCOCC3)C2)c(C(=O)Nc2ccc(C(=O)N3CCC(c4cc(C(=O)NC5CC5)cs4)=Cc4ccccc43)cc2)c1 [Example 12],10 to 50
13,CC1=C(c2ccc(C(=O)NC3CC3)s2)CCN(C(=O)c2ccc(NC(=O)c3cc(C)cnc3N3CC4(CCOCC4)C3)cc2)c2ccccc21 [Example 13],> 50
14,CC1=C(c2ccc(C(=O)Nc3c(C)cccc3F)s2)CCN(C(=O)c2ccc(NC(=O)c3cc(C)cnc3N3CC4(CCOCC4)C3)cc2)c2ccccc21 [Example 14],> 50
15,Cc1cnc(N2CC3(CCOCC3)C2)c(C(=O)Nc2ccc(C(=O)N3CCC(c4ccc(C(=O)NC5CC5)cc4)=Cc4ccccc43)cc2)c1 [Example 15],< 10
16,Cc1cnc(N2CC3(CCOCC3)C2)c(C(=O)Nc2ccc(C(=O)N3CCC(c4ccc(C(=O)Nc5c(C)cccc5F)cc4)=Cc4ccccc43)cc2)c1 [Example 16],< 10

# Same assay, conditions: human respiratory syncytial virus, HEp-2
row,SMILES,EC50 [nM]
1,"O=C(Nc1ccccc1F)N[C@H]1N=C(c2ccccc2)c2ccccc2NC1=O [RSV-604, reference compound]",~2400
